Data as given in patent US20240067631A1, “PYRAZOLE DERIVATIVES USEFUL AS NAMPT MODULATORS” (Cytokinetics, Inc., priority 2020, published 2024).

Target: human NAMPT (Homo sapiens (Human), UniProt P43490)
Assay: Human recombinant enzyme assay (NMN fluorescence biochemical assay)
Settings: 6 nM human NAMPT, 60 min; for AC1.4 Human: concentration of compound that generates 40% higher activity over basal; for EC50: concentration that gives half-maximal activation
Protocol: Compounds described herein were assayed for their ability to stimulate the synthesis of nicotinamide mononucleotide (NMN) by the enzyme NAMPT. The human recombinant enzyme assay measures the activation of the enzyme activity by compounds using recombinant enzyme and substrates in a buffered cell-free system. The assay conditions closely mimic cellular environments. Dose responses were measured using an assay to detect the formation of nicotinamide mono-nucleotide. All experiments were performed in the 384-well format. Generally, 0.5 μL of DMSO containing varying concentrations of the test compound was mixed with 10 μL of the enzyme reagent solution. Enzyme reactions were initiated with the addition of 10 μL of a solution containing the substrates. The final assay conditions were as follows: 6 nM human NAMPT, 2.5 mM ATP, […] in 50 mM HEPES, pH 7.2, 1 mM DTT, 1 mM CHAPS 50 mM NaCl, 100 mM MgCl2. Following an incubation of 60 min at ambient temperature, 10 μL of 20% acetophenone in DMSO was added, followed by 10 μL of 2 M KOH and 40 μL of formic acid. The plates were read for fluorescence (Excitation/Emission=355 nm/460 nm) using an EnVision plate reader after 40 mins of incubation at ambient temperature. The potency measurements for compounds, are quantified and represented as AC1.4 (the concentration of compounds that generates 40% higher activity over basal) and EC50 (concentration of the compound that gives half-maximal activation).

Chain of human NAMPT (P43490 whole entry): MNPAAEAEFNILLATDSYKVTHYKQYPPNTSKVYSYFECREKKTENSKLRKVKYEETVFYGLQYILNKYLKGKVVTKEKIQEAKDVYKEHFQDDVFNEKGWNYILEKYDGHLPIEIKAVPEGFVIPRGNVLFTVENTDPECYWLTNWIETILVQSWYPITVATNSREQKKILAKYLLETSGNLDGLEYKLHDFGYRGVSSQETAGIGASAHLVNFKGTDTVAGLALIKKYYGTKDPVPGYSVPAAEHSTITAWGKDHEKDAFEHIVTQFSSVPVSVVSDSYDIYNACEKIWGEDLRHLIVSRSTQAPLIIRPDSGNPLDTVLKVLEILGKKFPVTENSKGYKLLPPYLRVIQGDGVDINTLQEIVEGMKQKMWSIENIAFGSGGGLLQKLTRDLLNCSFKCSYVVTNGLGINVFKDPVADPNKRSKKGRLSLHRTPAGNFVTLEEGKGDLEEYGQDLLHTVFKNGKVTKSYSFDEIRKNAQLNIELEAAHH

SMILES	AC1.4 Human	EC50
Cc1nc(C(=O)N2CC(O)(C(F)(F)F)C2)nc(NCCc2cn[nH]c2)c1C [Compound 48, (4-((2-(1H-pyrazol-4-yl)ethyl)amino)-5,6-dimethylpyrimidin-2-yl)(3-hydroxy-3-(trifluoromethyl)azetidin-1-yl)methanone]	0.2925 µM	6.83 µM
Cc1nc(C(=O)N(C)[C@H](C)c2ccccc2Cl)nc(NCCc2cn[nH]c2)c1C [Compound 53, (R)-4-((2-(1H-pyrazol-4-yl)ethyl)amino)-N-(1-(2-chlorophenyl)ethyl)-N,5,6-trimethylpyrimidine-2-carboxamide]	0.3335 µM	2.6 µM
Cc1nc(C(=O)N2CCC[C@@H]2c2ccccc2F)nc(NCCc2cn[nH]c2)c1C [Compound 54, (R)-(4-((2-(1H-pyrazol-4-yl)ethyl)amino)-5,6-dimethylpyrimidin-2-yl)(2-(2-fluorophenyl)pyrrolidin-1-yl)methanone]	0.35 µM	2.37 µM
Cc1nc(C(=O)NCc2cccc(F)n2)nc(NCCc2cn[nH]c2)c1C [Compound 55, 4-((2-(1H-pyrazol-4-yl)ethyl)amino)-N-((6-fluoropyridin-2-yl)methyl)-5,6-dimethylpyrimidine-2-carboxamide]	0.375 µM	4.68 µM
Cc1nc(C(=O)NCC2CN(C(=O)c3ccccc3)C2)nc(NCCc2cn[nH]c2)c1C [Compound 57, 4-((2-(1H-pyrazol-4-yl)ethyl)amino)-N-((1-benzoylazetidin-3-yl)methyl)-5,6-dimethylpyrimidine-2-carboxamide]	0.396 µM	2.88 µM
Cc1nc(C(=O)N[C@@H](C)c2ccccc2)nc(NCCc2cn[nH]c2)c1C [Compound 59, (S)-4-((2-(1H-pyrazol-4-yl)ethyl)amino)-5,6-dimethyl-N-(1-phenylethyl)pyrimidine-2-carboxamide]	0.4045 µM	3.08 µM
Cc1nc(C(=O)N2CC(O)(Cc3ccccc3)C2)nc(NCCc2cn[nH]c2)c1C [Compound 60]	0.4085 µM	3.75 µM
Cc1nc(C(=O)N2C[C@@H](C)OC[C@H]2c2ccccc2)nc(NCCc2cn[nH]c2)c1C [Compound 62, (4-((2-(1H-pyrazol-4-yl)ethyl)amino)-5,6-dimethylpyrimidin-2-yl)((2R,5R)-2-methyl-5-phenylmorpholino)methanone]	0.4295 µM	3.21 µM
Cc1nc(C(=O)N2CCOC[C@@H]2c2ccccc2)nc(NCCc2cn[nH]c2)c1C [Compound 63, (S)-(4-((2-(1H-pyrazol-4-yl)ethyl)amino)-5,6-dimethylpyrimidin-2-yl)(3-phenylmorpholino)methanone]	0.4315 µM	2.29 µM
Cc1nc(C(=O)N2CCC(c3ccccc3F)C2)nc(NCCc2cn[nH]c2)c1C (stereo not shown) [Compound 66, (4-((2-(1H-pyrazol-4-yl)ethyl)amino)-5,6-dimethylpyrimidin-2-yl)(3-(2-fluorophenyl)pyrrolidin-1-yl)methanone]	4.5565 µM	16.3 µM
Cc1nc(C(=O)N2CCOCC2c2ccc(F)cc2)nc(NCCc2cn[nH]c2)c1C (stereo not shown) [Compound 67, (4-((2-(1H-pyrazol-4-yl)ethyl)amino)-5,6-dimethylpyrimidin-2-yl)(3-(4-fluorophenyl)morpholino)methanone]	0.505 µM	3.86 µM
Cc1nc(C(=O)NC(C)(C)c2ccccn2)nc(NCCc2cn[nH]c2)c1C [Compound 69, 4-((2-(1H-pyrazol-4-yl)ethyl)amino)-5,6-dimethyl-N-(2-(pyridin-2-yl)propan-2-yl)pyrimidine-2-carboxamide]	0.5395 µM	4.18 µM
Cc1nc(C(=O)NC(C)c2ccc(Cl)s2)nc(NCCc2cn[nH]c2)c1C (stereo not shown) [Compound 70, 4-((2-(1H-pyrazol-4-yl)ethyl)amino)-N-(1-(5-chlorothiophen-2-yl)ethyl)-5,6-dimethylpyrimidine-2-carboxamide]	0.5795 µM	3.12 µM
Cc1nc(C(=O)N2CCCC2Cc2ccccc2)nc(NCCc2cn[nH]c2)c1C (stereo not shown) [Compound 71, (4-((2-(1H-pyrazol-4-yl)ethyl)amino)-5,6-dimethylpyrimidin-2-yl)(2-benzylpyrrolidin-1-yl)methanone]	0.5835 µM	6.07 µM
Cc1nc(C(=O)N2CCOC[C@@H]2Cc2ccccc2)nc(NCCc2cn[nH]c2)c1C [Compound 72, (S)-(4-((2-(1H-pyrazol-4-yl)ethyl)amino)-5,6-dimethylpyrimidin-2-yl)(3-benzylmorpholino)methanone]	0.625 µM	3.53 µM
Cc1nc(C(=O)N[C@@H](C)c2cccc(F)n2)nc(NCCc2cn[nH]c2)c1C [Compound 73, (S)-4-((2-(1H-pyrazol-4-yl)ethyl)amino)-N-(1-(6-fluoropyridin-2-yl)ethyl)-5,6-dimethylpyrimidine-2-carboxamide]	0.6455 µM	3.24 µM
Cc1nc(C(=O)NCC2(c3cccc(F)c3)COC2)nc(NCCc2cn[nH]c2)c1C [Compound 74, 4-((2-(1H-pyrazol-4-yl)ethyl)amino)-N-((3-(3-fluorophenyl)oxetan-3-yl)methyl)-5,6-dimethylpyrimidine-2-carboxamide]	0.715 µM	8.01 µM
Cc1nc(C(=O)N[C@H](C)c2ccco2)nc(NCCc2cn[nH]c2)c1C [Compound 75, (R)-4-((2-(1H-pyrazol-4-yl)ethyl)amino)-N-(1-(furan-2-yl)ethyl)-5,6-dimethylpyrimidine-2-carboxamide]	0.7725 µM	2.62 µM
Cc1nc(C(=O)N2CC(c3ccccc3)C2)nc(NCCc2cn[nH]c2)c1C [Compound 76, (4-((2-(1H-pyrazol-4-yl)ethyl)amino)-5,6-dimethylpyrimidin-2-yl)(3-phenylazetidin-1-yl)methanone]	0.773 µM	6.83 µM

Stronger by EC50, values ahead:

AC1.4 Human	EC50	SMILES
0.458 µM	2.16 µM	Cc1nc(C(=O)N2CCOC[C@H]2Cc2ccccc2)nc(NCCc2cn[nH]c2)c1C [Compound 64, (R)-(4-((2-(1H-pyrazol-4-yl)ethyl)amino)-5,6-dimethylpyrimidin-2-yl)(3-benzylmorpholino)methanone]
0.409 µM	2.11 µM	Cc1nc(C(=O)N2CC[C@@H](c3ccccc3)C2)nc(NCCc2cn[nH]c2)c1C [Compound 61, (S)-(4-((2-(1H-pyrazol-4-yl)ethyl)amino)-5,6-dimethylpyrimidin-2-yl)(3-phenylpyrrolidin-1-yl)methanone]
0.3055 µM	2.1 µM	COC[C@H](NC(=O)c1nc(C)c(C)c(NCCc2cn[nH]c2)n1)c1cccc(F)c1 [Compound 49, (R)-4-((2-(1H-pyrazol-4-yl)ethyl)amino)-N-(1-(3-fluorophenyl)-2-methoxyethyl)-5,6-dimethylpyrimidine-2-carboxamide]
0.311 µM	2.08 µM	Cc1nc(C(=O)NCCc2ccccc2)nc(NCCc2cn[nH]c2)c1C [Compound 50, 4-((2-(1H-pyrazol-4-yl)ethyl)amino)-5,6-dimethyl-N-phenethylpyrimidine-2-carboxamide]
0.327 µM	1.88 µM	Cc1nc(C(=O)N2CC(O)(c3cccc(F)c3F)C2)nc(NCCc2cn[nH]c2)c1C [Compound 51, (4-((2-(1H-pyrazol-4-yl)ethyl)amino)-5,6-dimethylpyrimidin-2-yl)(3-(2,3-difluorophenyl)-3-hydroxyazetidin-1-yl)methanone]
0.3305 µM	1.78 µM	Cc1nc(C(=O)N2CC[C@H](c3ccccc3)C2)nc(NCCc2cn[nH]c2)c1C [Compound 52, (R)-(4-((2-(1H-pyrazol-4-yl)ethyl)amino)-5,6-dimethylpyrimidin-2-yl)(3-phenylpyrrolidin-1-yl)methanone]
0.4805 µM	1.69 µM	Cc1nc(C(=O)N[C@H](C)c2coc3ccccc23)nc(NCCc2cn[nH]c2)c1C [Compound 65, (R)-4-((2-(1H-pyrazol-4-yl)ethyl)amino)-N-(1-(benzofuran-3-yl)ethyl)-5,6-dimethylpyrimidine-2-carboxamide]
0.563 µM	1.64 µM	COc1cccc(C(C)NC(=O)c2nc(C)c(C)c(NCCc3cn[nH]c3)n2)n1 (stereo not shown) [Compound 68, 4-((2-(1H-pyrazol-4-yl)ethyl)amino)-N-(1-(6-methoxypyridin-2-yl)ethyl)-5,6-dimethylpyrimidine-2-carboxamide]
0.439 µM	1.37 µM	Cc1nc(C(=O)N[C@H](C)c2ncccc2F)nc(NCCc2cn[nH]c2)c1C [Compound 56, (R)-4-((2-(1H-pyrazol-4-yl)ethyl)amino)-N-(1-(3-fluoropyridin-2-yl)ethyl)-5,6-dimethylpyrimidine-2-carboxamide]
0.406 µM	0.788 µM	Cc1nc(C(=O)NCc2coc3ccccc23)nc(NCCc2cn[nH]c2)c1C [Compound 58, 4-((2-(1H-pyrazol-4-yl)ethyl)amino)-N-(benzofuran-3-ylmethyl)-5,6-dimethylpyrimidine-2-carboxamide]
